Legend:
Format in all cases: cell-based
[1] = tested on: HER3-ss+4aa/Gaussia Luciferase; assay: Dox-Induced Her3-ss-Gluc Assay; conditions: 24 hr doxycycline induction, 293FRT/TO cells, Gaussia luciferase signal; read-out: 24 hr Dox Inducible Her3(ss + 4)Gluc 293FRT/TO: Mean IC50
Procedure, shortened: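 Compounds, diluted in DMSO/media containing doxycycline, were incubated at 37° C., 5% CO2 with cells seeded one day earlier. The cells stably express HER3-ss+4aa/Gaussia luciferase under T-REx control. Where no stereochemistry is shown, data refer to the mixture of stereoisomers.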

[2] = tested on: human multiple myeloma cell line NCI-H929; assay: H929 Cell Viability Assay; conditions: 48 hr, NCI-H929 cells, Celltiter-Glo, read-out: 48 hr H929 Viability Celltiter-Glo: Mean EC50
Experimental: Plates were incubated at 37° C., 5% CO2 for 48 hours. After 48 hours, Celltiter-Glo® (Promega) was added to each well and luciferase signal was quantified using Tecan Infinite M1000 Pro for cell viability determination.
For chemical structures that include one or more stereoisomers, but are illustrated without indicating stereochemistry, the assay data refers to a mixture of stereoisomers.

[3] = tested on: human multiple myeloma cell line U266B1; assay: U266 Cell Viability Assay; conditions: U-266, 48 hr, U266B1 cells, Celltiter-Glo, read-out: 48 hr U266 Viability Celltiter-Glo: Mean EC50
Procedure, shortened: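 Viability measured by CellTiter-Glo luciferase signal after 48 h compound exposure (37 °C, 5% CO2) of U266B1 cells in 384-well format. Where stereochemistry is not shown, data refer to the stereoisomer mixture.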

[4] = tested on: PD1-ss+10aa/Gaussia Luciferase; assay: Dox-Induced PD1-ss-Gluc Assay; conditions: 24 hr doxycycline induction, 293FRT/TO cells, Gaussia luciferase signal; read-out: 24 hr Dox Inducible PD1ssGluc 293FRT/TO: Mean IC50
Procedure, shortened: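 Compounds, diluted in DMSO/media with doxycycline, were added to cells plated a day earlier and kept at 37° C under 5% CO2. The cells stably express a Gaussia luciferase construct fused to PD1-ss+10aa, induced via the T-REx system. Unassigned stereochemistry means mixture data.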

[5] = tested on: TNFα-FL/Gaussia Luciferase; assay: Dox Induced TNFα-FL-Gluc Assay; conditions: 24 hr doxycycline induction, 293FRT/TO cells, Gaussia luciferase signal; read-out: 24 hr Dox Inducible TNFaFLGluc 293FRT/TO: Mean IC50
Procedure, shortened: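 Compounds were added in doxycycline-containing DMSO/media to cells plated the previous day and incubated at 37° C under 5% CO2. These cells stably express a TNFα-FL/Gaussia luciferase cDNA whose expression is under T-REx (Dox-inducible) control, selected with Hygromycin and Blasticidin.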

[6] = tested on: IL-2-FL/Gaussia Luciferase; assay: Dox Induced IL2-FL-Gluc Assay; conditions: 24 hr doxycycline induction, 293FRT/TO cells, Gaussia luciferase signal; read-out: 24 hr Dox Inducible IL2FLGIuc 293FRT/TO: Mean IC50
Procedure, shortened: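 Compounds were added together with doxycycline in DMSO/media and incubated at 37° C., 5% CO2. The cells were a stably selected line carrying IL-2-FL/Gaussia luciferase under T-REx inducible control. Structures drawn without stereochemistry were tested as stereoisomer mixtures.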

| Compound | IC50 [1] | EC50 [2] | EC50 [3] | IC50 [4] | IC50 [5] | IC50 [6] |
| --- | --- | --- | --- | --- | --- | --- |
| COc1ccc(C#Cc2csc(NC(=O)c3cccn3Cc3ccncc3)n2)cc1 [Compound A143] | 423 nM | 15200 nM | > 19800 nM | 89 nM | 1580 nM | 617 nM |
| O=C(Nc1nc(C#Cc2ccccc2Cl)cs1)c1cccn1Cc1ccncc1 [Compound A144] | 395 nM | 6860 nM | 10400 nM | 151 nM | 905 nM | 748 nM |
| O=C(Nc1nc(/C=C/C2CCCCC2)cs1)c1cccn1Cc1ccncc1 [Compound A152, N-(4-(2-cyclohexylvinyl)thiazol-2-yl)-1-(pyridin-4-ylmethyl)-1H-pyrrole-2-carboxamide] | 280 nM | 11000 nM | > 25000 nM | 85 nM | 1580 nM | 854 nM |
| O=C(Nc1nc(/C=C/C2CCOCC2)cs1)c1cccn1Cc1ccncc1 [Compound A153, 1-(pyridin-4-ylmethyl)-N-(4-(2-(tetrahydro-2H-pyran-4-yl)vinyl)thiazol-2-yl)-1H-pyrrole-2-carboxamide] | 1550 nM | > 25000 nM | > 25000 nM | 902 nM | > 25000 nM | 4070 nM |
| O=C(Nc1nc(/C=C/C2CCCOC2)cs1)c1cccn1Cc1ccncc1 (stereo not drawn) [Compound A154, 1-(pyridin-4-ylmethyl)-N-(4-(2-(tetrahydro-2H-pyran-3-yl)vinyl)thiazol-2-yl)-1H-pyrrole-2-carboxamide] | 2600 nM | > 25000 nM | > 25000 nM | 694 nM | 11500 nM | 5420 nM |
| O=C(Nc1nc(/C=C/C2CCCCO2)cs1)c1cccn1Cc1ccncc1 (stereo not drawn) [Compound A155, 1-(pyridin-4-ylmethyl)-N-(4-(2-(tetrahydro-2H-pyran-2-yl)vinyl)thiazol-2-yl)-1H-pyrrole-2-carboxamide] | 2140 nM | > 25000 nM | > 25000 nM | 232 nM | 15900 nM | 4370 nM |
| COc1ccccc1/C=C/c1csc(NC(=O)c2cccn2Cc2ccncc2)n1 [Compound A158, N-(4-(2-methoxystyryl)thiazol-2-yl)-1-(pyridin-4-ylmethyl)-1H-pyrrole-2-carboxamide] | 993 nM | 15700 nM | > 25000 nM | 293 nM | 2420 nM | 1470 nM |
| COc1cccc(/C=C/c2csc(NC(=O)c3cccn3Cc3ccncc3)n2)c1 [Compound A159, N-(4-(3-methoxystyryl)thiazol-2-yl)-1-(pyridin-4-ylmethyl)-1H-pyrrole-2-carboxamide] | 948 nM | 5710 nM | 16200 nM | 247 nM | 9010 nM | 2650 nM |
| COc1ccc(/C=C/c2csc(NC(=O)c3cccn3Cc3ccncc3)n2)cc1 [Compound A160, N-(4-(4-methoxystyryl)thiazol-2-yl)-1-(pyridin-4-ylmethyl)-1H-pyrrole-2-carboxamide] | 259 nM | 9100 nM | > 25000 nM | 51 nM | 1740 nM | 374 nM |
| O=C(Nc1nc(/C=C/c2ccccc2Cl)cs1)c1cccn1Cc1ccncc1 [Compound A161, N-(4-(2-chlorostyryl)thiazol-2-yl)-1-(pyridin-4-ylmethyl)-1H-pyrrole-2-carboxamide] | 523 nM | 5280 nM | 10900 nM | 134 nM | 2870 nM | 1070 nM |
| O=C(Nc1nc(/C=C/c2ccc(Cl)cc2)cs1)c1cccn1Cc1ccncc1 [Compound A163, N-(4-(4-chlorostyryl)thiazol-2-yl)-1-(pyridin-4-ylmethyl)-1H-pyrrole-2-carboxamide] | 305 nM | 7610 nM | 24500 nM | 59 nM | 2470 nM | 652 nM |
| O=C(Nc1nc(/C=C/c2ccccn2)cs1)c1cccn1Cc1ccncc1 [Compound A164] | 8400 nM | 17700 nM | > 25000 nM | 98 nM | 23700 nM | 6770 nM |
| O=C(Nc1nc(/C=C/c2cccnc2)cs1)c1cccn1Cc1ccncc1 [Compound A165, N-(4-(2-(pyridin-3-yl)vinyl)thiazol-2-yl)-1-(pyridin-4-ylmethyl)-1H-pyrrole-2-carboxamide] | 9830 nM | 11100 nM | > 25000 nM | 1650 nM | > 25000 nM | 10800 nM |
| O=C(Nc1nc(/C=C/c2ccncc2)cs1)c1cccn1Cc1ccncc1 [Compound A166, N-(4-(2-(pyridin-4-yl)vinyl)thiazol-2-yl)-1-(pyridin-4-ylmethyl)-1H-pyrrole-2-carboxamide] | > 25000 nM | > 25000 nM | > 25000 nM | 13500 nM | > 25000 nM | > 25000 nM |
| COc1cccc(CCc2csc(NC(=O)c3cccn3Cc3ccncc3)n2)c1 [Compound A176] | 643 nM | 20800 nM | > 25000 nM | 272 nM | 2870 nM | 1200 nM |
| O=C(Nc1nc(CCc2ccccc2Cl)cs1)c1cccn1Cc1ccncc1 [Compound A178] | 367 nM | 9270 nM | 19900 nM | 152 nM | 929 nM | 500 nM |
| O=C(Nc1nc(CCc2cccc(Cl)c2)cs1)c1cccn1Cc1ccncc1 [Compound A179] | 541 nM | 5750 nM | 10600 nM | 211 nM | 3580 nM | 1170 nM |
| O=C(Nc1nc(CCc2ccc(Cl)cc2)cs1)c1cccn1Cc1ccncc1 [Compound A180] | 156 nM | 7180 nM | 6460 nM | 57 nM | 736 nM | 281 nM |
| O=C(Nc1nc(Cc2ccccc2)cs1)c1cccn1CCCc1ccncc1 [Compound A184, N-(4-benzylthiazol-2-yl)-1-(3-(pyridin-4-yl)propyl)-1H-pyrrole-2-carboxamide] | 807 nM | 11800 nM | 13300 nM | 448 nM | 2410 nM | 1080 nM |
| O=C(Nc1nc(Cc2ccccc2)cs1)c1cccn1CCCc1cccnc1 [Compound A187, N-(4-benzylthiazol-2-yl)-1-(3-(pyridin-3-yl)propyl)-1H-pyrrole-2-carboxamide] | > 21900 nM | 18300 nM | > 25000 nM | 10400 nM | > 25000 nM | 11600 nM |
| CC(C)OC(C)(C)c1csc(NC(=O)c2cccn2CCCc2cccnc2)n1 [Compound A190, N-(4-(2-isopropoxypropan-2-yl)thiazol-2-yl)-1-(3-(pyridin-3-yl)propyl)-1H-pyrrole-2-carboxamide] | > 18100 nM | > 25000 nM | > 25000 nM | 5230 nM | > 25000 nM | 3440 nM |
| O=C(Nc1nc([C@H]2C[C@@H]2c2ccccc2)cs1)c1cccn1Cc1ccncc1 [Compound A194, N-(4-((1S,2S)-2-phenylcyclopropyl)thiazol-2-yl)-1-(pyridin-4-ylmethyl)-1H-pyrrole-2-carboxamide] | 600 nM | 6670 nM | 16000 nM | 280 nM | 2300 nM | 1140 nM |
| O=C(Nc1nc([C@H]2C[C@H]2c2ccccc2)cs1)c1cccn1Cc1ccncc1 [Compound A200] | 332 nM | 15700 nM | > 25000 nM | 140 nM | 1610 nM | 251 nM |
| O=C(Nc1nc(/C=C/c2cccc(Cl)c2)cs1)c1cccn1Cc1ccncc1 [Compound A209, N-(4-(3-chlorostyryl)thiazol-2-yl)-1-(pyridin-4-ylmethyl)-1H-pyrrole-2-carboxamide] | 578 nM | > 25000 nM | > 25000 nM | 232 nM | 4740 nM | 1240 nM |

— US20220153732A1, “PROTEIN SECRETION INHIBITORS” (KEZAR LIFE SCIENCES, priority 2019, published 2022)
